Patent US20250206724A1, “SUBSTITUTED 3-AMINO INDAZOLE DERIVATIVES AS KINASE INHIBITORS” (NERVIANO MEDICAL SCIENCES S.R.L., priority 2022, published 2025)
Counter-ions that a name gives are not always drawn.

molecular target: T1, CDK11A (Homo sapiens, UniProt Q9UQ88); conditions: displacement of SNS-032-Atto590 probe (0.002 μM) from CDK11A-p58 (0.032 uM), fluorescence polarization
T1 sequence (Q9UQ88 346-783): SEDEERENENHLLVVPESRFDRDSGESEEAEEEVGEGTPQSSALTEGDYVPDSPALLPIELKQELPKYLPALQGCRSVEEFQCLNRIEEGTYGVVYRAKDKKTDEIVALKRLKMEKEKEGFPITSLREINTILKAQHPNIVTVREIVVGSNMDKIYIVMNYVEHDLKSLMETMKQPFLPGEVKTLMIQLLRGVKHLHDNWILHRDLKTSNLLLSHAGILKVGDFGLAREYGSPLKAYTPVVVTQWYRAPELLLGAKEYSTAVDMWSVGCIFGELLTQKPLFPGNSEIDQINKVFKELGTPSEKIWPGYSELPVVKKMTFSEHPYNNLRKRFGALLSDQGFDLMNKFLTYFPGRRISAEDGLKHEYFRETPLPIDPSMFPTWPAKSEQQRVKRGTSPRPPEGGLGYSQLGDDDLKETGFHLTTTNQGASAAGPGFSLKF
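Note: compound preincubated 30 min with CDK11A-p58, then probe added and polarization (mP) read 15 min later, 0% displacement is probe plus enzyme, 100% is probe alone.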

Compared with O=C(Nc1n[nH]c2ccc(-c3c(Cl)cccc3Cl)cc12)C1CCN(C2CC2)CC1 [compound 158, 1-Cyclopropyl-N-[5-(2,6-dichlorophenyl)-1H-indazol-3-yl]piperidine-4-carboxamide hydrochloride], NC[C@H]1CC[C@H](C(=O)Nc2n[nH]c3ccc(-c4c(Cl)cccc4Cl)cc23)CC1 [compound 164, trans-4-(Aminomethyl)-N-[5-(2,6-dichlorophenyl)-1H-indazol-3-yl]cyclohexanecarboxamide hydrochloride] is 4.6-fold lower in DC50: 695 nM for the first, 151 nM for the second.

First: NC(=O)c1ccc(Cl)c(-c2ccc3[nH]nc(NC(=O)C4CCCNC4)c3c2)c1 (stereo not drawn) [cpd 9, N-[5-(5-Carbamoyl-2-chlorophenyl)-1H-indazol-3-yl]piperidine-3-carboxamide hydrochloride]
Second: O=C(Nc1n[nH]c2ccc(-c3cc(Cl)ccc3Cl)cc12)[C@@H]1CCCNC1 [cpd 13, (3R)-N-[5-(2,5-Dichlorophenyl)-1H-indazol-3-yl]piperidine-3-carboxamide hydrochloride]
The DC50 of the first is 3.6-fold higher: 131 nM for the first, 36 nM for the second.

First: COc1ccc(Cl)c(-c2ccc3[nH]nc(NC(=O)C4CCCNC4)c3c2)c1 (stereo not drawn) [cpd 17, N-[5-(2-Chloro-5-methoxyphenyl)-1H-indazol-3-yl]piperidine-3-carboxamide hydrochloride]
Second: COc1ccc(F)c(-c2ccc3[nH]nc(NC(=O)[C@@H]4CCCNC4)c3c2)c1 [cpd 20, (3R)-N-[5-(2-Fluoro-5-methoxyphenyl)-1H-indazol-3-yl]piperidine-3-carboxamide hydrochloride]
The DC50 of the first is 1.7-fold lower: 52 nM for the first, 89 nM for the second.

Compared with CCOc1ccc(F)c(-c2ccc3[nH]nc(NC(=O)[C@@H]4CCCNC4)c3c2)c1 [cpd 22, (3R)-N-[5-(5-Ethoxy-2-fluorophenyl)-1H-indazol-3-yl]piperidine-3-carboxamide hydrochloride], O=C(Nc1n[nH]c2ccc(-c3cc(F)ccc3F)cc12)[C@@H]1CCCNC1 [cpd 35, (3R)-N-[5-(2,5-Difluorophenyl)-1H-indazol-3-yl]piperidine-3-carboxamide hydrochloride] is 1.6-fold lower in DC50: 55 nM for the first, 35 nM for the second.

Going from CN1CCC(C(=O)Nc2n[nH]c3ccc(-c4cc(F)c(F)cc4F)cc23)CC1 [compound 126, 1-Methyl-N-[5-(2,4,5-trifluorophenyl)-1H-indazol-3-yl]piperidine-4-carboxamide hydrochloride] to CN1CCC(C(=O)Nc2n[nH]c3ccc(-c4cc(Cl)ccc4Cl)cc23)CC1 [cpd 80, N-[5-(2,5-Dichlorophenyl)-1H-indazol-3-yl]-1-methylpiperidine-4-carboxamide hydrochloride], the DC50 falls from 913 nM to 216 nM (4.2-fold).

CN(C)C1CC(C(=O)Nc2n[nH]c3ccc(-c4cc(C#N)ccc4Cl)cc23)C1 (stereo not drawn) [compound 147, N-[5-(2-Chloro-5-cyanophenyl)-1H-indazol-3-yl]-3-(dimethylamino)cyclobutanecarboxamide hydrochloride] and CN(C)C1CC(C(=O)Nc2n[nH]c3ccc(-c4ccc(O)cc4Cl)cc23)C1 (stereo not drawn) [cpd 62, N-[5-(2-Chloro-4-hydroxyphenyl)-1H-indazol-3-yl]-3-(dimethylamino)cyclobutanecarboxamide hydrochloride] are within 1.5-fold of each other in DC50: 108 nM for the first, 148 nM for the second.

Going from CCCCCN1CCC(C(=O)Nc2n[nH]c3ccc(-c4cc(C#N)ccc4Cl)cc23)CC1 [compound 142, N-[5-(2-Chloro-5-cyanophenyl)-1H-indazol-3-yl]-1-pentylpiperidine-4-carboxamide hydrochloride] to Cc1cc(C#N)ccc1-c1ccc2[nH]nc(NC(=O)C3CCN(C)CC3)c2c1 [cpd 113, N-[5-(4-Cyano-2-methylphenyl)-1H-indazol-3-yl]-1-methylpiperidine-4-carboxamide hydrochloride], the DC50 rises from 95 nM to 534 nM (5.6-fold).

Compared with O=C(Nc1n[nH]c2ccc(-c3cc(F)ccc3C(F)(F)F)cc12)[C@@H]1CCCNC1 [cpd 46, (3R)-N-{5-[5-Fluoro-2-(trifluoromethyl)phenyl]-1H-indazol-3-yl}piperidine-3-carboxamide hydrochloride], Nc1ccc(-c2ccc3[nH]nc(NC(=O)[C@@H]4CCCNC4)c3c2)c(Cl)c1 [cpd 5, (3R)-N-[5-(4-Amino-2-chlorophenyl)-1H-indazol-3-yl]piperidine-3-carboxamide dihydrochloride] is 2.1-fold lower in DC50: 37 nM for the first, 18 nM for the second.

Going from COC(=O)c1cc(-c2ccc3[nH]nc(NC(=O)[C@@H]4CCNC4)c3c2)c(Cl)cc1N [cpd 54, Methyl 2-amino-4-chloro-5-(3-{[(3R)-pyrrolidin-3-ylcarbonyl]amino}-1H-indazol-5-yl)benzoate dihydrochloride] to COC(=O)c1ccc(Cl)c(-c2ccc3[nH]nc(NC(=O)[C@@H]4CCNC4)c3c2)c1 [cpd 37, Methyl 4-chloro-3-(3-{[(3R)-pyrrolidin-3-ylcarbonyl]amino}-1H-indazol-5-yl)benzoate hydrochloride], the DC50 falls from 102 nM to 26 nM (3.9-fold).

First: CN1CCC(C(=O)Nc2n[nH]c3ccc(-c4cc(CO)ccc4Cl)cc23)CC1 [cpd 77, N-{5-[2-Chloro-5-(hydroxymethyl)phenyl]-1H-indazol-3-yl}-1-methylpiperidine-4-carboxamide p-toluensulfonate]
Second: CN1CCC(C(=O)Nc2n[nH]c3ccc(-c4ccc(N)cc4Cl)cc23)CC1 [cpd 107, N-[5-(4-Amino-2-chlorophenyl)-1H-indazol-3-yl]-1-methylpiperidine-4-carboxamide dihydrochloride]
The DC50 of the first is 2.2-fold higher: 446 nM for the first, 200 nM for the second.

N#Cc1ccc(Cl)c(-c2ccc3[nH]nc(NC(=O)C4CCCCNC4)c3c2)c1 (stereo not drawn) [compound 183, N-[5-(2-Chloro-5-cyanophenyl)-1H-indazol-3-yl]azepane-3-carboxamide hydrochloride] and O=C(Nc1n[nH]c2ccc(-c3cc(Cl)ccc3Cl)cc12)C1CCCNC1 (stereo not drawn) [cpd 4, N-[5-(2,5-Dichlorophenyl)-1H-indazol-3-yl]piperidine-3-carboxamide hydrochloride] are within 1.5-fold of each other in DC50: 73 nM for the first, 50 nM for the second.

First: CN1CCC(C(=O)Nc2n[nH]c3ccc(-c4c(F)cccc4Cl)cc23)CC1 [cpd 64, N-[5-(2-Chloro-6-fluorophenyl)-1H-indazol-3-yl]-1-methylpiperidine-4-carboxamide hydrochloride]
Second: Cc1ccc(Cl)c(-c2ccc3[nH]nc(NC(=O)C4CCN(C)CC4)c3c2)c1F [cpd 72, N-[5-(6-Chloro-2-fluoro-3-methylphenyl)-1H-indazol-3-yl]-1-methylpiperidine-4-carboxamide hydrochloride]
The DC50 of the first is 2.5-fold lower: 66 nM for the first, 166 nM for the second.

Going from O=C(Nc1n[nH]c2ccc(-c3c(Cl)cccc3Cl)cc12)C12CCN(CC1)CC2 [compound 160, N-[5-(2,6-Dichlorophenyl)-1H-indazol-3-yl]-1-azabicyclo[2.2.2]octane-4-carboxamide] to CC(C)CN1CCC(C(=O)Nc2n[nH]c3ccc(-c4c(Cl)cccc4Cl)cc23)CC1 [cpd 70, N-[5-(2,6-Dichlorophenyl)-1H-indazol-3-yl]-1-(2-methylpropyl)piperidine-4-carboxamide], the DC50 falls from 221 nM to 136 nM (1.6-fold).

Compared with O=C(Nc1n[nH]c2ccc(-c3c(F)cccc3Cl)cc12)[C@H]1CCCNC1 [compound 173, (3S)-N-[5-(2-Chloro-6-fluorophenyl)-1H-indazol-3-yl]piperidine-3-carboxamide hydrochloride], O=C(Nc1n[nH]c2ccc(-c3ccc(Cl)cc3Cl)cc12)[C@@H]1CCCNC1 [cpd 14, (3R)-N-[5-(2,4-Dichlorophenyl)-1H-indazol-3-yl]piperidine-3-carboxamide hydrochloride] is 4.5-fold lower in DC50: 391 nM for the first, 87 nM for the second.

CNC1CC(C(=O)Nc2n[nH]c3ccc(-c4ccc(O)cc4Cl)cc23)C1 (stereo not drawn) [cpd 63, N-[5-(2-Chloro-4-hydroxyphenyl)-1H-indazol-3-yl]-3-(methylamino)cyclobutanecarboxamide hydrochloride] and CNC(=O)c1ccc(Cl)c(-c2ccc3[nH]nc(NC(=O)[C@@H]4CCNC4)c3c2)c1 [cpd 39, (3R)-N-{5-[2-Chloro-5-(methylcarbamoyl)phenyl]-1H-indazol-3-yl}pyrrolidine-3-carboxamide hydrochloride] are within 1.5-fold of each other in DC50: 48 nM for the first, 44 nM for the second.

First: CC(C)C(OC(=O)N1CCC[C@@H](C(=O)Nc2n[nH]c3ccc(-c4cc(C#N)ccc4Cl)cc23)C1)OC(=O)C(C)(C)C (stereo partly drawn) [compound 197, 1-[(2,2-Dimethylpropanoyl)oxy]-2-methylpropyl (3R)-3-{[5-(2-chloro-5-cyanophenyl)-1H-indazol-3-yl]carbamoyl}piperidine-1-carboxylate]
Second: N#Cc1ccc(Cl)c(-c2ccc3[nH]nc(NC(=O)[C@H]4CNCCO4)c3c2)c1 [compound 182, (2R)-N-[5-(2-Chloro-5-cyanophenyl)-1H-indazol-3-yl]morpholine-2-carboxamide hydrochloride]
The DC50 of the first is 6.4-fold higher: 900 nM for the first, 140 nM for the second.

CN1CCC(C(=O)Nc2n[nH]c3ccc(-c4ccccc4)cc23)CC1 [cpd 93, 1-Methyl-N-(5-phenyl-1H-indazol-3-yl)piperidine-4-carboxamide hydrochloride] and CN1CCC(C(=O)Nc2n[nH]c3ccc(-c4cccc(C#N)c4)cc23)CC1 [cpd 89, N-[5-(3-Cyanophenyl)-1H-indazol-3-yl]-1-methylpiperidine-4-carboxamide hydrochloride] are within 1.5-fold of each other in DC50: 938 nM for the first, 784 nM for the second.

First: CN1CCC(C(=O)Nc2n[nH]c3ccc(-c4ccc(S(N)(=O)=O)cc4)cc23)CC1 [cpd 92, 1-Methyl-N-[5-(4-sulfamoylphenyl)-1H-indazol-3-yl]piperidine-4-carboxamide hydrochloride]
Second: CCCCOc1ccc2[nH]nc(NC(=O)[C@@H]3CCCNC3)c2c1 [cpd 231, (3R)-N-(5-Butoxy-1H-indazol-3-yl)piperidine-3-carboxamide hydrochloride]
The DC50 of the first is 11-fold higher: 799 nM for the first, 71 nM for the second.
